Each structure is given as a SMILES string. Where a SMILES comes first, the peptide text is derived from it. The star is where a group is joined. Stearoyl = CCCCCCCCCCCCCCCCCC(=O)*

The values that follow come from BindingDB's records for doi:10.1016/j.bmcl.2020.127353 (Lanzhou University, 2020).

The test is described as follows: Binding affinity to NK1R (unknown origin) expressed in HEK293 cells assessed as reduction in cell viability incubated for 96 hrs by MTT assay.

As to `CCCCCCCCCCCCCCCCCC(=O)N[C@@H](CCCCN)C(=O)N[C@@H](Cc1c[nH]c2ccccc12)C(=O)N[C@@H](CCCCN)C(=O)N[C@@H](CC(C)C)C(=O)N[C@@H](CCC(=O)O)C(=O)N[C@@H](CCCCN)C(=O)N[C@@H](CCCCN)C(=O)N[C@H](C(=O)NCC(=O)N[C@@H](C)C(=O)N[C@H](C(=O)N[C@@H](CC(C)C)C(=O)N[C@H](C(=O)N[C@@H](CS)C(=O)N[C@H](C(=O)N[C@@H](CC(C)C)C(=O)N[C@@H](CCCNC(=N)N)C(=O)N1CCC[C@H]1C(=O)N[C@@H](CCCCN)C(=O)N1CCC[C@H]1C(=O)N[C@@H](CCC(N)=O)C(=O)N[C@@H](CCC(N)=O)C(=O)N[C@@H](Cc1ccccc1)C(=O)N[C@@H](Cc1ccccc1)C(=O)NCC(=O)N[C@@H](CC(C)C)C(=O)N[C@@H](CCSC)C(N)=O)C(C)C)[C@@H](C)CC)C(C)C)[C@@H](C)CC` (Stearoyl-KWKLEKKIGAVLICVLRPKPQQFFGLM-NH2), the EC50 came out at 5.3 µM.
